This note sets out measurements from patent US9834773B2, “Methods and means for metabolic engineering and improved product formation by micro-organisms” (Universiteit Leiden, priority 2006, dated 2017).

The assay deals with DasR (Streptomyces coelicolor, UniProt Q9K492). In words: EMSA binding interference experiment: ability of compounds to interfere with binding of DasR to the nagB and crr promoters. The settings on record: for effect on formation of the complex of DasR with the nagB promoter (EMSA): 10 nM fluorescent probe, 3 μM purified DasR, 500-fold excess of non-specific DNA, 50, 100, 150, and 200 mM compound; for effect on formation of the complex of DasR with the crr promoter region (EMSA): data not shown. The protocol:
FIG. 12. […] EMSAs were performed with 10 nM fluorescent probe, 3 μM purified DasR, and 500-fold excess of non-specific DNA.
EMSAs were performed with fluorescent probes (10 nM) with an ALF express sequencer (Filee et al., 2001). Purified DasR (3 μM) and 1000-fold excess of non-specific DNA were used in the reaction mixture. Predicted cis-acting elements were taken from the promoter regions of actII-ORF4 (SCO5085; 5′-[…]-3′ (SEQ ID NO:530)), and redZ (SCO5881; 5′-[…]-3′ (SEQ ID NO:531)). Known cis-acting elements upstream of crr (SCO1390; […]-3′ (SEQ ID NO:532)), and crp (SCO3571; 5′-[…]-3′ (SEQ ID NO:533)) were used as positive and negative controls, respectively. The 16 nt dre sites are underlined.
A pivotal question is what is the effector molecule that modulates DasR? As shown in here, many of the targets for DasR relate to the generation (chitinolytic system), transport (PTS^GlcNAc), and metabolism (glycolysis via fructose 6-P) of N-acetylglucosamine. We therefore looked for the inducer among the intermediate molecules that gravitate around aminosugar metabolism. A binding interference experiment was set up where the ability of compounds to interfere with binding of dasR to the nagB and crr promoters was tested. […] The finding that glucosamine-6-P serves as an effector of DasR is explained by its central position at the metabolic crossroads between (GlcNAc)n extracellular degradation, N-acetylglucosamine transport and intracellular metabolism, lipid and nitrogen metabolism, glycolysis, and peptidoglycan synthesis (FIG. 13).

Chain of DasR (Q9K492 whole entry): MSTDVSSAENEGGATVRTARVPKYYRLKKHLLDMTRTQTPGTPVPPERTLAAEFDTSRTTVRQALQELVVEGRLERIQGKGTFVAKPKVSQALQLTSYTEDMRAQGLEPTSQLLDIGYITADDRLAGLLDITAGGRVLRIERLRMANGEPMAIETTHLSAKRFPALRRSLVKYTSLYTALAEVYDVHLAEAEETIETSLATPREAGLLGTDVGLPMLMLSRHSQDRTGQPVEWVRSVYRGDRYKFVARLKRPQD

As to `N[C@H]1C(O)O[C@H](COP(=O)(O)O)[C@@H](O)[C@@H]1O` (stereo partly shown) [glucosamine-6-P, glucosamine-6-phosphate], the “effect on formation of the complex of DasR with the nagB promoter (EMSA)” value (“effect … with the nagB promoter (EMSA)” below) was “prevented the formation of a complex” and the “effect on formation of the complex of DasR with the crr promoter region (EMSA)” value (from here on “effect … with the crr promoter region (EMSA)”) is listed as “prevented the formation of a complex”. The “effect … with the nagB promoter (EMSA)” value (listed as GlcN-6-P) was “release of DasR from the dre site”.

For the compound `O=C(CO)[C@@H](O)[C@H](O)[C@H](O)COP(=O)(O)O` [fructose 6-P], the “effect … with the nagB promoter (EMSA)” value is on record as “it was the only of the compounds tested that prevented the formation of a complex” and the “effect … with the crr promoter region (EMSA)” value is recorded as “it was the only of the compounds tested that prevented the formation of a complex”.

Take `NC(=O)CC[C@H](N)C(=O)O` [glutamine]: the “effect … with the nagB promoter (EMSA)” value was “it was the only of the compounds tested that prevented the formation of a complex” and the “effect … with the crr promoter region (EMSA)” value is recorded as “it was the only of the compounds tested that prevented the formation of a complex”.

As to `N[C@@H](CCC(=O)O)C(=O)O` [glutamate], the “effect … with the nagB promoter (EMSA)” value was “it was the only of the compounds tested that prevented the formation of a complex” and the “effect … with the crr promoter region (EMSA)” value is listed as “it was the only of the compounds tested that prevented the formation of a complex”.

Take `CC(=O)N[C@H]1C(O)O[C@H](COP(=O)(O)O)[C@@H](O)[C@@H]1O` (stereo partly shown) [N-acetylglucosamine-6-P]: the “effect … with the nagB promoter (EMSA)” value is given as “it was the only of the compounds tested that prevented the formation of a complex” and the “effect … with the crr promoter region (EMSA)” value was “it was the only of the compounds tested that prevented the formation of a complex”.

Turning to `CC(=O)SCCNC(=O)CCNC(=O)[C@H](O)C(C)(C)COP(=O)(O)OP(=O)(O)OC[C@H]1O[C@@H](n2cnc3c(N)ncnc32)[C@H](O)[C@@H]1OP(=O)(O)O` [acetyl-CoA], the “effect … with the nagB promoter (EMSA)” value is reported as “it was the only of the compounds tested that prevented the formation of a complex” and the “effect … with the crr promoter region (EMSA)” value was “it was the only of the compounds tested that prevented the formation of a complex”.
